Here are results for 57 compounds from US11780841B2, “3,6-methano-1H-pyrrolo[3,2-b]pyridine and 3,6-methano-1H-pyrrolo[3,2-c]pyridine compounds and medicaments using same” (priority 2018, dated 2023).

Some results are limits rather than exact numbers.

The subject of one test is recombinant rabies virus 1088 strain expressing Gaussia Luciferase (GLuc) (1088/GLuc). Type of test: cell-based. To be noted: read-out: Anti-rabies activity.
For the compound `CC(C)C[C@@H]1[C@@H]2[C@@H]3CN[C@@]1(C(=O)NCc1cccc4ccccc14)C[C@@H]3CN2CC(N)=O` (relative stereo) [IF-81], the IC50 lay within 10 to 30 µM.

In the case of `NC(=O)CN1C[C@H]2C[C@]3(C(=O)NCc4cccc5ccccc45)NC[C@H]2[C@H]1[C@H]3Cc1ccccc1` (relative stereo) [IF-82], the IC50 was 10 to 30 µM. On the same count and under the same terms, in the case of `CC(C)CC[C@@H]1[C@@H]2[C@@H]3CN[C@@]1(C(=O)NCc1cccc4ccccc14)C[C@@H]3CN2CC(N)=O` (relative stereo) [IF-84] it was 10 to 30 µM; in that of `NC(=O)CN1C[C@H]2C[C@]3(C(=O)NCc4cccc5ccccc45)NC[C@H]2[C@H]1[C@H]3CCc1ccccc1` (relative stereo) [IF-85], 10 to 30 µM; in that of `NC(=O)CN1C[C@H]2C[C@]3(C(=O)NCCc4ccccc4)NC[C@H]2[C@H]1[C@H]3Cc1cccc2ccccc12` (relative stereo) [IF-90], 10 to 30 µM. Same read-out and setting: in the case of `NC(=O)CN1C[C@H]2C[C@]3(C(=O)NCc4cccc5ccccc45)NC[C@H]2[C@H]1[C@H]3Cc1cccc2ccccc12` (relative stereo) [IF-91] it was less than 5 µM; in that of `CC(C)CC[C@@H]1[C@@H]2[C@@H]3CN[C@@]1(C(=O)NCc1ccc(F)cc1)C[C@@H]3CN2CC(N)=O` (relative stereo) [IF-95], 10 to 30 µM. The same measure, in the same setting: in the case of `O=C(NCc1ccccc1)[C@@]12C[C@@H]3CN(Cc4cccc5ccccc45)[C@@H]([C@@H]3CN1)[C@H]2Cc1ccc(O)cc1` (relative stereo) [IF-505] it was less than 5 µM; in that of `O=C(NCc1ccc(F)cc1)[C@@]12C[C@@H]3CN(CCO)[C@@H]([C@@H]3CN1)[C@H]2Cc1ccccc1` (relative stereo) [IF-508], 10 to 30 µM; in that of `CCCCCCNC(=O)[C@@]12C[C@@H]3CN(CC4CCCCC4)[C@@H]([C@@H]3CN1)[C@H]2Cc1ccc(O)cc1` (relative stereo) [IF-514], less than 5 µM. In the case of `O=C(NCc1ccc(F)cc1)[C@@]12C[C@@H]3CN(CCO)[C@@H]([C@@H]3CN1)[C@H]2CCc1ccccc1` (relative stereo) [IF-516], the IC50 is less than 5 µM. In the case of `CC(C)CN1C[C@H]2C[C@]3(C(=O)NCc4ccc(F)cc4)NC[C@H]2[C@H]1[C@H]3CCc1ccccc1` (relative stereo) [IF-525], the IC50 fell in the range of 10 to 30 µM. On the same count and under the same terms, the value for `CC(C)C[C@@H]1[C@@H]2[C@@H]3CN[C@@]1(C(=O)NCc1cccc4ccccc14)C[C@@H]3CN2CCO` (relative stereo) [IF-542] was less than 5 µM; that for `CC(C)CCN1C[C@H]2C[C@]3(C(=O)NCCc4ccccc4)NC[C@H]2[C@H]1[C@H]3Cc1ccc(O)cc1` (relative stereo) [IF-545] was 10 to 30 µM. Same read-out and setting: in the case of `CCCCCCNC(=O)[C@@]12C[C@@H]3CN(CCC(C)C)[C@@H]([C@@H]3CN1)[C@H]2CC(C)C` (relative stereo) [IF-546] it was 10 to 30 µM. Still for that read-out and setting: in the case of `CC(C)CCN1C[C@H]2C[C@]3(C(=O)NCc4ccc(F)cc4)NC[C@H]2[C@H]1[C@H]3Cc1ccccc1` (relative stereo) [IF-547] it was less than 5 µM. Take `CC(C)CCN1C[C@H]2C[C@]3(C(=O)NCc4ccc(F)cc4)NC[C@H]2[C@H]1[C@H]3CC(C)C` (relative stereo) [IF-548]: the IC50 was 10 to 30 µM. For the compound `CCCCCCNC(=O)[C@@]12C[C@@H]3CN(Cc4ccccc4)[C@@H]([C@@H]3CN1)[C@H]2CC(C)C` (relative stereo) [IF-560], the IC50 is less than 5 µM. As to `O=C(NCc1ccc(F)cc1)[C@@]12C[C@@H]3CN(Cc4ccccc4)[C@@H]([C@@H]3CN1)[C@H]2Cc1ccccc1` (relative stereo) [IF-561], the IC50 was less than 5 µM. Still for that read-out and setting: the value for `O=C(NCc1ccc(O)cc1)[C@@]12C[C@@H]3CN(Cc4ccccc4)[C@@H]([C@@H]3CN1)[C@H]2CCc1ccccc1` (relative stereo) [IF-565] was less than 5 µM; that for `CC(C)CN1C[C@H]2C[C@]3(C(=O)NCCc4ccccc4)NC[C@H]2[C@H]1[C@H]3Cc1ccc(O)cc1` (relative stereo) [IF-567] was 10 to 30 µM. Regarding `CC(C)CN1C[C@H]2C[C@]3(C(=O)NCc4cccc5ccccc45)NC[C@H]2[C@H]1[C@H]3Cc1ccc(O)cc1` (relative stereo) [IF-568], the IC50 was less than 5 µM. On the same count and under the same terms, the value for `CCCCCCNC(=O)[C@@]12C[C@@H]3CN(CC(C)C)[C@@H]([C@@H]3CN1)[C@H]2CC(C)C` (relative stereo) [IF-569] was 10 to 30 µM. The same measure, in the same setting: in the case of `CC(C)CN1C[C@H]2C[C@]3(C(=O)NCc4ccc(O)cc4)NC[C@H]2[C@H]1[C@H]3CCc1ccccc1` (relative stereo) [IF-576] it was 10 to 30 µM. Still for that read-out and setting: in the case of `CC(C)C[C@@H]1[C@@H]2[C@@H]3CN[C@@]1(C(=O)NCc1cccc4ccccc14)C[C@@H]3CN2Cc1ccc(O)cc1` (relative stereo) [IF-578] it was less than 5 µM; in that of `CCCCCCNC(=O)[C@@]12C[C@@H]3CN(CCC(C)C)[C@@H]([C@@H]3CN1)[C@H]2Cc1ccc(O)cc1` (relative stereo) [IF-583], less than 5 µM. In the case of `CC(C)CCNC(=O)[C@@]12C[C@@H]3CN(Cc4ccc(F)cc4)[C@@H]([C@@H]3CN1)[C@H]2Cc1ccccc1` (relative stereo) [IF-584], the IC50 is less than 5 µM. On to `CC(C)CCNC(=O)[C@@]12C[C@@H]3CN(Cc4ccc(F)cc4)[C@@H]([C@@H]3CN1)[C@H]2CC(C)C` (relative stereo) [IF-585], for which the IC50 is less than 5 µM. On the same count and under the same terms, in the case of `O=C(NCCc1ccccc1)[C@@]12C[C@@H]3CN(Cc4ccc(F)cc4)[C@@H]([C@@H]3CN1)[C@H]2Cc1ccccc1` (relative stereo) [IF-586] it was 10 to 30 µM; in that of `CCCCCCNC(=O)[C@@]12C[C@@H]3CN(CCC(C)C)[C@@H]([C@@H]3CN1)[C@H]2Cc1ccccc1` (relative stereo) [IF-599], 10 to 30 µM; in that of `CCCCCCNC(=O)[C@@]12C[C@@H]3CN(CCc4ccccc4)[C@@H]([C@@H]3CN1)[C@H]2Cc1ccccc1` (relative stereo) [IF-602], 10 to 30 µM.

Consider `CC(C)CNC(=O)[C@]12N=C[C@@H]3C[C@H]1CN(Cc1ccccc1)[C@H]2[C@@H]3CC(C)C` (relative stereo) [IIB-4], for which the IC50 is 5 to 10 µM. `Cc1ccc(CNC(=O)[C@@]23C[C@@H]4CN(CC(C)C)[C@@H]([C@@H]4C=N2)[C@H]3Cc2ccccc2)cc1` (relative stereo) [IIF-16]: the IC50 was in the range of 10 to 30 µM. `CC(C)CC[C@@H]1[C@H]2CN[C@@]3(C(=O)NCc4cccc5ccccc45)[C@@H](C2)CN(CC(N)=O)[C@@H]13` [IB-84]: the IC50 is 10 to 30 µM. Same read-out and setting: the value for `CC(C)C[C@@H]1[C@H]2CN[C@@]3(C(=O)NCCc4ccccc4)[C@@H](C2)CN(CC(N)=O)[C@@H]13` [IB-86] was 10 to 30 µM. Still for that read-out and setting: the value for `NC(=O)CN1C[C@@H]2C[C@@H]3CN[C@]2(C(=O)NCCc2ccccc2)[C@@H]1[C@@H]3Cc1ccccc1` [IB-87] was less than 5 µM; that for `CC(C)CC[C@@H]1[C@H]2CN[C@@]3(C(=O)NCCc4ccccc4)[C@@H](C2)CN(CC(N)=O)[C@@H]13` [IB-89] was less than 5 µM; that for `NC(=O)CN1C[C@@H]2C[C@@H]3CN[C@]2(C(=O)NCc2cccc4ccccc24)[C@@H]1[C@@H]3Cc1cccc2ccccc12` [IB-90] was less than 5 µM. On to `NC(=O)CN1C[C@@H]2C[C@@H]3CN[C@]2(C(=O)NCc2ccc(F)cc2)[C@@H]1[C@@H]3Cc1ccccc1` [IB-92], for which the IC50 was 10 to 30 µM.

Consider `NC(=O)CN1C[C@@H]2C[C@@H]3CN[C@]2(C(=O)NCc2ccc(F)cc2)[C@@H]1[C@@H]3CCc1ccccc1` [IB-95], for which the IC50 is less than 5 µM. `NC(=O)CN1C[C@@H]2C[C@@H]3CN[C@]2(C(=O)NCc2ccc(F)cc2)[C@@H]1[C@@H]3Cc1cccc2ccccc12` [IB-96]: the IC50 is 10 to 30 µM. Same read-out and setting: the value for `NC(=O)CN1C[C@@H]2C[C@@H]3CN[C@]2(C(=O)NCCc2ccccc2)[C@@H]1[C@@H]3Cc1cccc2ccccc12` [IB-97] was less than 5 µM; that for `CC(C)CCNC(=O)[C@]12NC[C@H]3C[C@H]1CN(CC(N)=O)[C@H]2[C@@H]3CCc1ccccc1` [IB-102] was less than 5 µM; that for `CC(C)CCNC(=O)[C@]12NC[C@H]3C[C@H]1CN(CC(N)=O)[C@H]2[C@@H]3Cc1cccc2ccccc12` [IB-103] was 10 to 30 µM. Same read-out and setting: the value for `CCCCCCNC(=O)[C@]12NC[C@H]3C[C@H]1CN(CC(N)=O)[C@H]2[C@@H]3Cc1ccccc1` [IB-105] was 10 to 30 µM.

For `CCCCCCNC(=O)[C@]12NC[C@H]3C[C@H]1CN(CC(N)=O)[C@H]2[C@@H]3CCC(C)C` [IB-108], the IC50 fell in the range of 10 to 30 µM.

Regarding `CCCCCCNC(=O)[C@]12NC[C@H]3C[C@H]1CN(CC(N)=O)[C@H]2[C@@H]3CCc1ccccc1` [IB-109], the IC50 was 10 to 30 µM. The same measure, in the same setting: in the case of `CCCCCCNC(=O)[C@]12NC[C@H]3C[C@H]1CN(CC(N)=O)[C@H]2[C@@H]3Cc1cccc2ccccc12` [IB-110] it was less than 5 µM; in that of `NC(=O)CN1C[C@@H]2C[C@@H]3CN[C@]2(C(=O)NCc2ccccc2)[C@@H]1[C@@H]3CCc1ccccc1` [IB-130], 10 to 30 µM; in that of `CCCCCCNC(=O)[C@]12NC[C@H]3C[C@H]1CN(CCCNC(=N)N)[C@H]2[C@@H]3CCc1ccccc1` [IB-174], 10 to 30 µM. On the same count and under the same terms, the value for `CC(C)C[C@@H]1[C@H]2CN[C@@]3(C(=O)NC(C)C)[C@@H](C2)CN(CCCNC(=N)N)[C@@H]13` [IB-176] was 10 to 30 µM.

As for `CC(C)NC(=O)[C@]12NC[C@H]3C[C@H]1CN(CCCNC(=N)N)[C@H]2[C@@H]3CCc1ccccc1` [IB-179], the IC50 was in the range of 10 to 30 µM.

As for `N=C(N)NCCCN1C[C@@H]2C[C@@H]3CN[C@]2(C(=O)NCc2ccc(F)cc2)[C@@H]1[C@@H]3Cc1ccccc1` [IB-182], the IC50 lay in the range of 10 to 30 µM. For the compound `CC(C)CNC(=O)[C@]12NC[C@H]3C[C@H]1CN(CC(C)C)[C@H]2[C@@H]3CCCNC(=N)N` [IB-187], the IC50 is 10 to 30 µM. Still for that read-out and setting: the value for `CC(C)CCNC(=O)[C@]12NC[C@H]3C[C@H]1CN(CC(C)C)[C@H]2[C@@H]3CCCNC(=N)N` [IB-192] was less than 5 µM; that for `CC(C)CNC(=O)[C@]12NC[C@H]3C[C@H]1CN(Cc1ccccc1)[C@H]2[C@@H]3CCCNC(=N)N` [IB-198] was 10 to 30 µM; that for `CC(C)CNC(=O)[C@]12NC[C@H]3C[C@H]1CN(Cc1ccc(O)cc1)[C@H]2[C@@H]3CCCNC(=N)N` [IB-203] was 10 to 30 µM.

The test is the same for the next values; noted with them: read-out: IC50.
With `CC(C)CNC(=O)[C@]12N=C[C@@H]3C[C@H]1CN(Cc1ccccc1)[C@H]2[C@@H]3CC(C)C` (relative stereo) [IIB-4], the IC50 was 8.9 µM. The same measure, in the same setting: in the case of `Cc1ccc(CNC(=O)[C@@]23C[C@@H]4CN(CC(C)C)[C@@H]([C@@H]4C=N2)[C@H]3Cc2ccccc2)cc1` (relative stereo) [IIF-16] it was 28.7 µM.
